Measured values reported in publication PMC7567501 (Journal of Enzyme Inhibition and Medicinal Chemistry, 2019).

Legend:
[1] = Fe(III) complexation, UV-vis spectrophotometric titration; type: physicochemical; conditions: 25% w/w DMSO/water
Description: (§1) It has been largely accepted that chelators interfere both in metal-induced Aβ aggregation/neurotoxicity and on metal homeostasis of AD brains. Among the hybrids with BF hydroxyl substituent, compound 21 was chosen as a representative model to analyse the concomitant chelating capacity towards the redox-active (Fe(III), Cu(II)) and Aβ-binding (Cu(II)) metal ions. Due to solubility reasons, these studies were performed in a mixed 25% (w/w) DMSO/water medium, In fact, DMSO was chosen because it is a widely used and well tolerated solvent in biological and cellular studies, the amounts of ligand (<7 µM) and DMSO (<1%) employed in culture media being quite low with concomitant no alterations observed in cells.
(§2) The chelating ability of compound 21 towards the two metal ions under study (Fe(III) and Cu(II)) was evaluated on the basis of the global formation constants of the complexes, obtained by treatment of the UV-vis spectrophotometric data (see Table 1).
(§3) For the metal complexation studies, the aqueous iron (FeCl3, 0.0177 M) and copper (CuCl2, 0.015 M) stock solutions were prepared from 1000 ppm standards (Titrisol) and their metal content was evaluated by atomic absorption. To prevent hydrolysis, the iron stock solution was prepared in excess of acid chloride and its exact concentration in HCl determined by the usual standard-addition method using 0.1 M HCl (Titrisol). The 0.1 M HCl solution, used in spectrophotometric titrations, was prepared from a Titrisol ampoule while the titrant was from carbonate free commercial concentrate (Titrisol, KOH 0.1 M ampoules). The KOH solution was standardised by titration with a solution of potassium hydrogen phthalate and was discarded whenever the percentage of carbonate, determined by Gran’s method, was greater than 0.5% of the total amount of base.
(§4) The electronic spectra and the AChE inhibition assays were performed in a 1-cm path length quartz cell with a Perkin Elmer Lambda 35 spectrophotometer equipped with a temperature programmer PTP1 + 1 Peltier System (T = 25.0 ± 0.1 °C). The enzyme AChE 500 U, extracted from Electrophorus electricus (electric eel), was purchased from Sigma-Aldrich.

[2] = Cu(II) complexation, UV-vis spectrophotometric titration; type: physicochemical; conditions: 25% w/w DMSO/water
Description: as §1, §2, §3, §4

[3] = pH 7.4, CL/CM = 10, CM = 10^−6 M

O=C(NCCCNc1c2c(nc3ccccc13)CCCC2)c1cc2cccc(O)c2o1 [Compound 21, 7-Hydroxy-N-(3-((1,2,3,4-tetrahydroacridin-9-yl)amino)propyl)benzofuran-2-carboxamide]
log βFemHhLl, species (1–22) ([1]; T = 25.0 °C, I = 0.1 M KCl): 12.21(8) | log βFemHhLl, species (103) ([1]; T = 25.0 °C, I = 0.1 M KCl): 36.95(7) | log βFemHhLl, species (111) ([1]; T = 25.0 °C, I = 0.1 M KCl): 22.90(6) | log βFemHhLl, species (112) ([1]; T = 25.0 °C, I = 0.1 M KCl): 38.37(6) | pM (pFe) = −log[M] [1, 3]: 22.2 | log βCumHhLl, species (1–11) ([2]; T = 25.0 °C, I = 0.1 M KCl): 2.25(3) | log βCumHhLl, species (101) ([2]; T = 25.0 °C, I = 0.1 M KCl): 10.87(6) | log βCumHhLl, species (102) ([2]; T = 25.0 °C, I = 0.1 M KCl): 20.68(8) | log βCumHhLl, species (111) ([2]; T = 25.0 °C, I = 0.1 M KCl): 19.02(2) | pM (pCu) = −log[M] [2, 3]: 11.9
